The source of these data is PMC11462347 (Heliyon, 2024).

Assay [1] has as its target T1, tyrosinase (Agaricus bisporus, UniProt C7FF04). Description: Fluorescence quenching of tyrosinase. The conditions noted are these: for quenching mechanism: Ksv decreasing with temperature; for ΔH / ΔS: van't Hoff equation, 298-310 K; for Kd: Ka. It is filed as binding.
Target sequence in this assay (C7FF04 1-392 limits assumed): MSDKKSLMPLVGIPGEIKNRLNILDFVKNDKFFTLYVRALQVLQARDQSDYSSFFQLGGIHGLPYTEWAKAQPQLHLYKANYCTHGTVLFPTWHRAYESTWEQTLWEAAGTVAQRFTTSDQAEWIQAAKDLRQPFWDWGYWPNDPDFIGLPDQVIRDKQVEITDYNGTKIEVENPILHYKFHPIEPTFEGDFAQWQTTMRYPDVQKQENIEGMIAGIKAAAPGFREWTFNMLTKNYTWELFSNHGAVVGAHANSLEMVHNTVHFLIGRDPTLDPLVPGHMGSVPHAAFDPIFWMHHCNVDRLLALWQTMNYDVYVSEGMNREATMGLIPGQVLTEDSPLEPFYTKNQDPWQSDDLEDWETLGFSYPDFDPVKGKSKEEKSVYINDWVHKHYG
Assay [2] deals with T1, tyrosinase. In words: Kinetic assay for inhibition action. It is filed as biochemical. The conditions noted are these: for Inhibition type: Lineweaver-Burk plot.
Target sequence in this assay (C7FF04 1-392): as the sequence (C7FF04 1-392 limits assumed) above
Assay [3] has as its target T1, tyrosinase. In words: biochemical.
Target sequence in this assay (C7FF04 1-392): as the sequence (C7FF04 1-392 limits assumed) above

With `O=c1c(O)c(-c2ccc(O)c(O)c2)oc2cc(O)cc(O)c12` [Quercetin], on tyrosinase [1], the “numbers of binding sites (n)” value is reported as roughly 2, the quenching mechanism entry is “static”, the ΔH worked out at 2.18 ± 0.311 kcal/mol and the ΔS is reported as 43.56 ± 3.21 J mol^−1k^−1. Further, at tyrosinase [1] (298 K), the Kq is reported as 1.44 × 10^12 L mol^−1 S^−1. For the same compound, the Kq at tyrosinase [1] (304 K) is 1.17 × 10^12 L mol^−1 S^−1. Further, the Kq at tyrosinase [1] (310 K) is reported as 1.13 × 10^12 L mol^−1 S^−1. For the same compound, on tyrosinase [1] (T 298 K), the KSV is 1.44 ± 0.21 10^4L·mol^−1, the “n (number of binding sites)” value amounted to 1.44 and the ΔG is -0.923 ± 0.012 kcal/mol. For the same compound, on tyrosinase [1] (T 304 K), the KSV is 1.17 ± 0.11 10^4L·mol^−1, the “n (number of binding sites)” value turned out to be 1.46 and the ΔG is -0.985 ± 0.0048 kcal/mol. For the same compound, at tyrosinase [1] (T 310 K), the KSV was 1.13 ± 0.15 10^4L·mol^−1, the “n (number of binding sites)” value is 1.61 and the ΔG was -1.05 ± 0.0048 kcal/mol. For the same compound, the Inhibition type result at tyrosinase [2] is on record as “Competitive”.
`O=c1c(O)c(-c2ccc(O)cc2)oc2cc(O)cc(O)c12` [Kaempferol]: at tyrosinase [1], the “numbers of binding sites (n)” value is roughly 1, the quenching mechanism entry was “static”, the ΔH is 2.49 ± 0.263 kcal/mol and the ΔS came to 45.03 ± 7.1 J mol^−1k^−1. On tyrosinase [1] (298 K), the Kq was 1.03 × 10^12 L mol^−1 S^−1. In addition, the Kq at tyrosinase [1] (304 K) was 0.83 × 10^12 L mol^−1 S^−1. On tyrosinase [1] (310 K), the Kq is 0.73 × 10^12 L mol^−1 S^−1. In addition, at tyrosinase [1] (T 298 K), binding was characterised by a dissociation constant (Kd) of 47.6 µM, the KSV is 1.03 ± 0.04 10^4L·mol^−1, the “n (number of binding sites)” value amounted to 1.08 and the ΔG is -0.717 ± 0.014 kcal/mol. Moreover, at tyrosinase [1] (T 304 K), the affinity, expressed as Kd, was 16.9 µM; the KSV is given as 0.83 ± 0.1 10^4L·mol^−1; the “n (number of binding sites)” value is 1.22; the ΔG was -0.782 ± 0.0072 kcal/mol. Also, at tyrosinase [1] (T 310 K), binding was characterised by a dissociation constant (Kd) of 12.3 µM, the KSV is listed as 0.73 ± 0.02 10^4L·mol^−1, the “n (number of binding sites)” value is recorded as 1.27 and the ΔG was -0.846 ± 0.012 kcal/mol. Also, the midpoint of inhibition against tyrosinase [3], the IC50, lay at 82.1 ± 13.7 µM. Further, the Inhibition type entry at tyrosinase [2] was “Competitive”.
Take `COc1cc(-c2oc3cc(O)cc(O)c3c(=O)c2O)ccc1O` [Isorhamnetin]: at tyrosinase [1], the “numbers of binding sites (n)” value was roughly 1, the quenching mechanism entry was “static”, the ΔH was -1.07 ± 0.502 kcal/mol and the ΔS is −5.10 ± 1.19 J mol^−1k^−1. Moreover, on tyrosinase [1] (298 K), the Kq was 0.73 × 10^12 L mol^−1 S^−1. The Kq at tyrosinase [1] (304 K) is reported as 0.65 × 10^12 L mol^−1 S^−1. In addition, on tyrosinase [1] (310 K), the Kq is recorded as 0.51 × 10^12 L mol^−1 S^−1. On tyrosinase [1] (T 298 K), the Kd – broadly, the concentration at which binding is half-saturated – is 5.46 µM; the KSV is 0.73 ± 0.01 10^4L·mol^−1; the “n (number of binding sites)” value is recorded as 1.10; the ΔG was -0.707 ± 0.0024 kcal/mol. For the same compound, on tyrosinase [1] (T 304 K), the Kd is 5.18 µM, the KSV was 0.65 ± 0.02 10^4L·mol^−1, the “n (number of binding sites)” value is 1.12 and the ΔG is -0.7 ± 0.0024 kcal/mol. Further, at tyrosinase [1] (T 310 K), binding was characterised by a dissociation constant (Kd) of 9.8 µM, the KSV is 0.51 ± 0.01 10^4L·mol^−1, the “n (number of binding sites)” value is given as 1.08 and the ΔG was -0.693 ± 0.0048 kcal/mol. Further, the IC50 (usually the point on the concentration scale where inhibition reaches its midpoint) against tyrosinase [3] came out at 96.4 ± 9.9 µM. The Inhibition type entry on tyrosinase [2] was “Mixed”. On tyrosinase [2] (listed as isorhamnetin), the Inhibition type result is “mixed inhibition”. The Kis on tyrosinase [2] (binding to enzyme-substrate complex) was determined as 0.924 ± 0.02 mg/mL.
